Assay results published in ChEMBL document CHEMBL1201861, “Genomics of Drug Sensitity in Cancer screening data, Wellcome Trust Sanger Institute”.

How the values were obtained:
Test in all cases: cells
NKM-1 = format: functional, cell-based; conditions: Homo sapiens;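 further: growth inhibition of NKM-1 cells, read out with a cell viability assay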
Description: SANGER: Inhibition of human NKM-1 cell growth in a cell viability assay.

G-401 = format: functional, cell-based, Homo sapiens; conditions: Homo sapiens, G-401
Description: SANGER: Inhibition of human G-401 cell growth in a cell viability assay.

HDLM-2 = format: functional, cell-based; conditions: Homo sapiens;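 further: cell viability assay measuring suppression of HDLM-2 proliferation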
Description: SANGER: Inhibition of human HDLM-2 cell growth in a cell viability assay.

KURAMOCHI = format: functional, cell-based; conditions: Homo sapiens;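 further: growth inhibition of KURAMOCHI cells, read out with a cell viability assay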
Description: SANGER: Inhibition of human KURAMOCHI cell growth in a cell viability assay.

HAL-01 = format: functional, cell-based; conditions: Homo sapiens;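 further: growth inhibition of human HAL-01 cells, read out with a cell viability assay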
Description: SANGER: Inhibition of human HAL-01 cell growth in a cell viability assay.

COLO-684 = format: functional, cell-based; conditions: Homo sapiens
Description: SANGER: Inhibition of human COLO-684 cell growth in a cell viability assay.

SNU1 = format: functional, cell-based; conditions: Homo sapiens;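 further: growth inhibition of human NCI-SNU-1 cells, measured with a cell viability assay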
Description: SANGER: Inhibition of human NCI-SNU-1 cell growth in a cell viability assay.

COLO-679 = format: functional, cell-based, Homo sapiens; conditions: Homo sapiens, COLO-679
Description: SANGER: Inhibition of human COLO-679 cell growth in a cell viability assay.

ME-180 = format: functional, cell-based; conditions: Homo sapiens;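 further: cell viability assay measuring growth inhibition of ME-180 cells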
Description: SANGER: Inhibition of human ME-180 cell growth in a cell viability assay.

OVCAR-8 = format: functional, cell-based, Homo sapiens; conditions: Homo sapiens, OVCAR-8;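 further: growth inhibition of human OVCAR-8 cells, read out by a cell viability assay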
Description: SANGER: Inhibition of human OVCAR-8 cell growth in a cell viability assay.

CCRF-CEM = format: functional, cell-based; conditions: Homo sapiens;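 further: inhibition of CCRF-CEM cell growth, measured by a cell viability assay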
Description: SANGER: Inhibition of human CCRF-CEM cell growth in a cell viability assay.

COLO-680N = format: functional, cell-based, Homo sapiens; conditions: Homo sapiens, COLO-680N;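 further: cell viability assay used to measure inhibition of COLO-680N cell growth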
Description: SANGER: Inhibition of human COLO-680N cell growth in a cell viability assay.

GMS-10 = format: functional, cell-based, Homo sapiens; conditions: Homo sapiens, GMS-10;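 further: growth inhibition of GMS-10 cells, read out as cell viability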
Description: SANGER: Inhibition of human GMS-10 cell growth in a cell viability assay.

H4 = format: functional, cell-based; conditions: Homo sapiens
Description: SANGER: Inhibition of human H4 cell growth in a cell viability assay.

BV-173 = format: functional, cell-based; conditions: Homo sapiens
Description: SANGER: Inhibition of human BV-173 cell growth in a cell viability assay.

COLO-800 = format: functional, cell-based, Homo sapiens; conditions: Homo sapiens, COLO-800;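 further: growth inhibition of COLO-800 cells, read out with a cell viability assay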
Description: SANGER: Inhibition of human COLO-800 cell growth in a cell viability assay.

NB69 = format: functional, cell-based, Homo sapiens; conditions: Homo sapiens, NB69;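 further: growth inhibition of NB69 cells, determined by a cell viability assay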
Description: SANGER: Inhibition of human NB69 cell growth in a cell viability assay.

HOP-92 = format: functional, cell-based, Homo sapiens; conditions: Homo sapiens, HOP-92;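 further: cell viability readout, with IC50 reflecting inhibition of HOP-92 cell growth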
Description: SANGER: Inhibition of human HOP-92 cell growth in a cell viability assay.

TE-5 = format: functional, cell-based, Homo sapiens; conditions: Homo sapiens, TE-5;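 further: inhibition of cell growth, read out by a cell viability assay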
Description: SANGER: Inhibition of human TE-5 cell growth in a cell viability assay.

HCC38 = format: functional, cell-based, Homo sapiens; conditions: Homo sapiens, HCC38;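 further: cell viability assay on the human HCC38 cell line, with IC50 marking the concentration that inhibits cell growth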
Description: SANGER: Inhibition of human HCC38 cell growth in a cell viability assay.

NCI-H650 = format: functional, cell-based, Homo sapiens; conditions: Homo sapiens, NCI-H650;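 further: growth inhibition of NCI-H650 cells, read out by a viability assay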
Description: SANGER: Inhibition of human NCI-H650 cell growth in a cell viability assay.

LCLC-103H cell line = format: functional, cell-based, Homo sapiens; conditions: Homo sapiens, LCLC-103H
Description: SANGER: Inhibition of human LCLC-103H cell growth in a cell viability assay.

HT-29 = format: functional, cell-based, Homo sapiens; conditions: Homo sapiens, HT-29;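 further: growth inhibition of human HT-29 cells, read out by a cell viability assay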
Description: SANGER: Inhibition of human HT-29 cell growth in a cell viability assay.

DJM-1 = format: functional, cell-based, Homo sapiens; conditions: Homo sapiens, DJM-1;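 further: growth inhibition of human DJM-1 cells, read out by a cell viability assay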
Description: SANGER: Inhibition of human DJM-1 cell growth in a cell viability assay.

HTC-C3 = format: functional, cell-based, Homo sapiens; conditions: Homo sapiens, HTC-C3;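 further: inhibition of cell growth, read out with a cell viability assay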
Description: SANGER: Inhibition of human HTC-C3 cell growth in a cell viability assay.

COLO-741 = format: functional, cell-based, Homo sapiens; conditions: Homo sapiens, COLO-741
Description: SANGER: Inhibition of human COLO-741 cell growth in a cell viability assay.

HuP-T4 = format: functional, cell-based, Homo sapiens; conditions: Homo sapiens, HuP-T4;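 further: cell viability assay measuring how much HuP-T4 cell growth is inhibited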
Description: SANGER: Inhibition of human HuP-T4 cell growth in a cell viability assay.

NCI-H510A = format: functional, cell-based; conditions: Homo sapiens;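 further: growth inhibition of NCI-H510A cells, read out with a cell viability assay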
Description: SANGER: Inhibition of human NCI-H510A cell growth in a cell viability assay.

NCI-H1395 = format: functional, cell-based, Homo sapiens; conditions: Homo sapiens, NCI-H1395;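 further: cell viability assay read-out quantifying reduced proliferation of human NCI-H1395 cells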
Description: SANGER: Inhibition of human NCI-H1395 cell growth in a cell viability assay.

DSH1 = format: functional, cell-based, Homo sapiens; conditions: Homo sapiens, DSH1;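 further: growth inhibition of human DSH1 cells, measured with a cell viability readout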
Description: SANGER: Inhibition of human DSH1 cell growth in a cell viability assay.

NCI-H2122 = format: functional, cell-based, Homo sapiens; conditions: Homo sapiens, NCI-H2122;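 further: growth inhibition of the cells, read out with a cell viability assay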
Description: SANGER: Inhibition of human NCI-H2122 cell growth in a cell viability assay.

EW-1 = format: functional, cell-based, Homo sapiens; conditions: Homo sapiens, EW-1;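 further: growth inhibition of the human EW-1 cell line, read out by a cell viability assay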
Description: SANGER: Inhibition of human EW-1 cell growth in a cell viability assay.

SK-N-AS = format: functional, cell-based, Homo sapiens; conditions: Homo sapiens, SK-N-AS;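 further: growth inhibition of human SK-N-AS cells, measured with a cell viability assay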
Description: SANGER: Inhibition of human SK-N-AS cell growth in a cell viability assay.

QIMR-WIL = format: functional, cell-based; conditions: Homo sapiens;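 further: growth inhibition of QIMR-WIL cells, read out with a cell viability assay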
Description: SANGER: Inhibition of human QIMR-WIL cell growth in a cell viability assay.

FTC-133 = format: functional, cell-based, Homo sapiens; conditions: Homo sapiens, FTC-133
LN-405 = format: functional, cell-based, Homo sapiens; conditions: Homo sapiens, LN-405
Description: SANGER: Inhibition of human LN-405 cell growth in a cell viability assay.

NEC8 = format: functional, cell-based, Homo sapiens; conditions: Homo sapiens, NEC8;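 further: growth inhibition of human NEC8 cells, read out by a cell viability assay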
Description: SANGER: Inhibition of human NEC8 cell growth in a cell viability assay.

SK-N-FI = format: functional, cell-based, Homo sapiens; conditions: Homo sapiens, SK-N-FI;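 further: cell viability assay measuring growth inhibition of human SK-N-FI cells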
Description: SANGER: Inhibition of human SK-N-FI cell growth in a cell viability assay.

CGTH-W-1 = format: functional, cell-based, Homo sapiens; conditions: Homo sapiens, CGTH-W-1;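 further: growth inhibition of human CGTH-W-1 cells measured by cell viability assay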
Description: SANGER: Inhibition of human CGTH-W-1 cell growth in a cell viability assay.

no-11 = format: functional, cell-based, Homo sapiens; conditions: Homo sapiens;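 further: growth inhibition of human NO-11 cells, read out with a cell viability assay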
Description: SANGER: Inhibition of human no-11 cell growth in a cell viability assay.

EFO-21 = format: functional, cell-based, Homo sapiens; conditions: Homo sapiens, EFO-21;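 further: growth inhibition of EFO-21 cells measured with a viability assay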
Description: SANGER: Inhibition of human EFO-21 cell growth in a cell viability assay.

IST-SL1 = format: functional, cell-based, Homo sapiens; conditions: Homo sapiens, IST-SL1;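 further: growth inhibition of human IST-SL1 cells, read out with a cell viability assay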
Description: SANGER: Inhibition of human IST-SL1 cell growth in a cell viability assay.

OMC-1 = format: functional, cell-based, Homo sapiens; conditions: Homo sapiens, OMC-1;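 further: growth inhibition of the OMC-1 cell line, measured by a cell viability assay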
Description: SANGER: Inhibition of human OMC-1 cell growth in a cell viability assay.

OS-RC-2 = format: functional, cell-based, Homo sapiens; conditions: Homo sapiens, OS-RC-2;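 further: growth inhibition of human OS-RC-2 cells, measured by a cell viability assay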
Description: SANGER: Inhibition of human OS-RC-2 cell growth in a cell viability assay.

ChaGo-K-1 = format: functional, cell-based; conditions: Homo sapiens;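 further: growth inhibition of ChaGo-K-1 cells, read out with a cell viability assay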
Description: SANGER: Inhibition of human ChaGo-K-1 cell growth in a cell viability assay.

Detroit 562 = format: functional, cell-based, Homo sapiens; conditions: Homo sapiens, Detroit 562;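 further: growth inhibition of human Detroit 562 cells, read out by a cell viability assay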
Description: SANGER: Inhibition of human Detroit562 cell growth in a cell viability assay.

HCC 2998 = format: functional, cell-based, Homo sapiens; conditions: Homo sapiens, HCC 2998;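 further: growth inhibition of human HCC2998 cells, measured with a cell viability read-out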
Description: SANGER: Inhibition of human HCC2998 cell growth in a cell viability assay.

RMG-I = format: functional, cell-based, Homo sapiens; conditions: Homo sapiens, RMG-I;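 further: growth inhibition of human RMG-I cells, read out with a cell viability assay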
Description: SANGER: Inhibition of human RMG-I cell growth in a cell viability assay.

MDA-MB-361 = format: functional, cell-based, Homo sapiens; conditions: Homo sapiens, MDA-MB-361
CTV-1 = format: functional, cell-based; conditions: Homo sapiens;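 further: growth inhibition of the cell line, read out with a cell viability assay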
Description: SANGER: Inhibition of human CTV-1 cell growth in a cell viability assay.

Q: What does the source list for `CN(Cc1cnc2nc(N)nc(N)c2n1)c1ccc(C(=O)N[C@@H](CCC(=O)O)C(=O)O)cc1` [METHOTREXATE]?
A: IC50 (NKM-1): 0.0077 µM; IC50 (G-401): > 0.2 µM; IC50 (HDLM-2): 0.01 µM; IC50 (KURAMOCHI): > 0.2 µM; IC50 (HAL-01): 0.0223 µM; IC50 (COLO-684): 0.0375 µM; IC50 (SNU1): 0.00751 µM; IC50 (COLO-679): > 0.2 µM; IC50 (ME-180): > 0.2 µM; IC50 (OVCAR-8): > 0.2 µM; IC50 (CCRF-CEM): > 0.2 µM; IC50 (COLO-680N): > 0.2 µM; IC50 (GMS-10): > 0.2 µM; IC50 (H4): > 0.2 µM; IC50 (BV-173): 0.00635 µM; IC50 (COLO-800): 0.124 µM; IC50 (NB69): > 0.2 µM; IC50 (HOP-92): > 0.2 µM; IC50 (TE-5): > 0.2 µM; IC50 (HCC38): > 0.2 µM; IC50 (NCI-H650): > 0.2 µM; IC50 (LCLC-103H cell line): 0.174 µM; IC50 (HT-29): 0.153 µM; IC50 (DJM-1): > 0.2 µM; IC50 (HTC-C3): > 0.2 µM; IC50 (COLO-741): 0.162 µM; IC50 (HuP-T4): > 0.2 µM; IC50 (NCI-H510A): > 0.2 µM; IC50 (NCI-H1395): > 0.2 µM; IC50 (DSH1): > 0.2 µM; IC50 (NCI-H2122): 0.151 µM; IC50 (EW-1): 0.168 µM; IC50 (SK-N-AS): > 0.2 µM; IC50 (QIMR-WIL): 0.139 µM; IC50 (FTC-133): > 0.2 µM; IC50 (LN-405): > 0.2 µM; IC50 (NEC8): > 0.2 µM; IC50 (SK-N-FI): > 0.2 µM; IC50 (CGTH-W-1): 0.0312 µM; IC50 (no-11): > 0.2 µM; IC50 (EFO-21): > 0.2 µM; IC50 (IST-SL1): > 0.2 µM; IC50 (OMC-1): > 0.2 µM; IC50 (OS-RC-2): > 0.2 µM; IC50 (ChaGo-K-1): > 0.2 µM; IC50 (Detroit 562): > 0.2 µM; IC50 (HCC 2998): > 0.2 µM; IC50 (RMG-I): > 0.2 µM; IC50 (MDA-MB-361): > 0.2 µM; IC50 (CTV-1): 0.0771 µM
